According to patent publication US12116358B2, “Substituted indoles and methods of use thereof” (EPIZYME, INC., priority 2018, dated 2024):
Like-named read-outs stand apart in the source and are kept apart here.

What was measured:
[1] = target: T1, SETD2(1434-1711) (Homo sapiens, UniProt Q9BYW2); assay: SETD2 (1434-1711) assay; assay type: biochemical; details: read-out: SETD2 (1434-1711)
T1 construct: SETD2 (1434-1711) Assay; catalogue N/A
T1 sequence (Q9BYW2 1434-1711): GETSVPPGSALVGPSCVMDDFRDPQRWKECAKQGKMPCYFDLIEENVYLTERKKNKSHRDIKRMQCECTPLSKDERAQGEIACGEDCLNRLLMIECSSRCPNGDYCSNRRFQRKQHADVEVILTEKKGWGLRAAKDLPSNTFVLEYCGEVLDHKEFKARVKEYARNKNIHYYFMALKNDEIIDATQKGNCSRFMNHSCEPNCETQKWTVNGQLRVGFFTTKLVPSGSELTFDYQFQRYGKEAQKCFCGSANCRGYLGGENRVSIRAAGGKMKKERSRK

[2] = system: H3K36me3 in A549 cells; assay: In-Cell Western (ICW) assay of SETD2 inhibitors (A549 assay); assay type: cell-based, human; details: A549 cells, read-out: SETD2 A549
Experimental: In-Cell Western (ICW) Assay of SETD2 Inhibitors (A549 Assay)
Representative Compounds of the Disclosure were tested in the A549 assay according the following protocol.
1. Reagents and Consumables:
Prepare plates with compounds. Seed A549 cells to the plates with compounds, 4,000 cells/well, 50 μl/well. Put the plates at room temperature on a non-vibrating surface for 20 minutes before placing in the incubator. Incubate the plate at 37° C. incubator with CO2 for 3 days. Remove plate from incubator and bring to room temperature. Blot media out of the plate and add 50 μL of ice cold 100% methanol. Incubate 30 minutes at room temperature. Remove methanol by aspiration. Wash 3× with PBST. Add 50 μL of Blocking Buffer+0.1% Tween 20. Incubate 1 hour. Remove Blocking Buffer, wash 3× with PBST. Add 20 μL of H3K36me3 (1:1000 dilution). […] Incubate overnight at 4° C. Wash plate 5× with PBS-T. Add 20 μL of DRAQ5 (1:1000) and IRDye 800CW Goat anti-Rabbit IgG (1:500). Incubate for 1 hour in the dark. Wash plate 5× with PBS-T. Wash plate 3× with water. Dry by blotting on paper towel, then centrifuge plate upside down on a thin layer of paper towels for 1 minute at 1000 rpm to remove excess reagent. Leave plate uncovered for ˜10 minutes out of direct light before reading. Read on Licor instrument.
4. Licor Instrument Settings:
Preset: Plate; Resolution: 84 μm; Quality: low; Focus offset: 4.0; 700 channel intensity: 2; and 800 channel intensity: 3.

Compound | IC50 [1] | IC50 [2] | IC50 ([2]; Homo sapiens)
CCC(=O)N1CCN(c2cccc(NC(=O)c3cc4c(F)ccc(C)c4[nH]3)c2)CC1 [compound 36] | 30 nM | 90 nM | –
Cc1ccc(F)c2cc(C(=O)Nc3cc(F)cc(N4CC5(CCN(CC(F)F)CC5)C4)c3)[nH]c12 [compound 40] | 40 nM | 100 nM | –
Cc1ccc(F)c2cc(C(=O)Nc3cccc(N4CC5(CCN(CC(F)F)CC5)C4)c3)[nH]c12 [compound 41] | 30 nM | 100 nM | –
CC(=O)N(C)C1CCCN(c2cccc(NC(=O)c3cc4c(F)ccc(C)c4[nH]3)c2)C1 (centres unmarked) [compound 42] | 20 nM | 100 nM | –
COCC(=O)N1CCN(c2cccc(NC(=O)c3cc4c(F)ccc(C)c4[nH]3)c2)CC1 [compound 44] | 40 nM | – | 100 nM
CC(=O)N1CCC(c2cccc(NC(=O)c3cc4c(F)ccc(C)c4[nH]3)c2)CC1 [compound 45] | 30 nM | – | 100 nM
Cc1ccc(F)c2cc(C(=O)Nc3cc(F)cc(N4CCOC(CO)C4)c3)[nH]c12 (centres unmarked) [compound 48] | 20 nM | 100 nM | –
Cc1ccc(F)c2cc(C(=O)Nc3cccc(N4CCN(C(=O)c5cccnc5)CC4)c3)[nH]c12 [compound 49] | 30 nM | 100 nM | –
Cc1ccc(F)c2cc(C(=O)Nc3cccc(N4CCOC(CCO)C4)c3)[nH]c12 (centres unmarked) [compound 50] | 60 nM | 100 nM | –
Cc1ccc(F)c2cc(C(=O)Nc3cccc([C@@H]4CCN5C(=O)CC[C@@H]5C4)c3)[nH]c12 [compound 51] | 20 nM | 100 nM | –
CC(=O)N1CCN(c2cccc(NC(=O)c3cc4c(F)ccc(C)c4[nH]3)c2F)CC1 [compound 52] | 70 nM | 100 nM | –
Cc1ccc(F)c2cc(C(=O)Nc3cccc(N4CCN5C(=O)N(C)CC5C4)c3)[nH]c12 (centres unmarked) [compound 54] | 30 nM | – | 100 nM
Cc1ccc(F)c2cc(C(=O)Nc3cccc(N4CCN(C(=O)N(C)C)CC4)c3)[nH]c12 [compound 55] | 50 nM | – | 100 nM
CC(=O)N1CCC(c2cc(F)cc(NC(=O)c3cc4c(F)ccc(C)c4[nH]3)c2)C1 (centres unmarked) [compound 56] | 30 nM | 100 nM | –
Cc1ccc(F)c2cc(C(=O)Nc3cccc(N4CCC5(CC4)COC5)c3)[nH]c12 [compound 57] | 30 nM | 100 nM | –
Cc1ccc(F)c2cc(C(=O)Nc3cccc(N4CCN(C)C(=O)C4)c3)[nH]c12 [compound 58] | 40 nM | 100 nM | –
Cc1ccc(F)c2cc(C(=O)Nc3cccc(N4CC(F)C(N(C)C)C4)c3)[nH]c12 (centres unmarked) [compound 63] | 20 nM | 100 nM | –
CCC1CN(c2cccc(NC(=O)c3cc4c(F)ccc(C)c4[nH]3)c2)CCN1C(C)=O (centres unmarked) [compound 71] | 40 nM | 200 nM | –
Cc1ccc(F)c2cc(C(=O)Nc3cccc(N4CCN(C(=O)CO)CC4)c3)[nH]c12 [compound 72] | 30 nM | 200 nM | –
CC(=O)N1CCC(c2cccc(NC(=O)c3cc4c(F)ccc(C)c4[nH]3)c2)C1 (centres unmarked) [compound 73] | 40 nM | 200 nM | –
Cc1ccc(F)c2cc(C(=O)Nc3cccc(N4CCC(N5CCOCC5)C4)c3)[nH]c12 (centres unmarked) [compound 74] | 30 nM | 200 nM | –
COCCC(=O)N1CCN(c2cccc(NC(=O)c3cc4c(F)ccc(C)c4[nH]3)c2)CC1 [compound 75] | 60 nM | 200 nM | –
CC(=O)N1CCN(c2cccc(NC(=O)c3cc4c(F)ccc(C)c4[nH]3)c2)CC1C(F)(F)F (centres unmarked) [compound 77] | 60 nM | 200 nM | –
CC(=O)N(C)C1CCN(c2cccc(NC(=O)c3cc4c(F)ccc(C)c4[nH]3)c2)CC1 [compound 78] | 40 nM | 200 nM | –

Other lines, results leading:

IC50 [1] | IC50 [2] | IC50 ([2]; Homo sapiens) | Compound
8 nM | 60 nM | – | Cc1ccc(F)c2cc(C(=O)Nc3cc(F)cc(N4CCC(N5CCCC5=O)C4)c3)[nH]c12 (centres unmarked) [compound 18]
10 nM | 60 nM | – | CC(=O)N1CCC2(CC1)CN(c1cc(F)cc(NC(=O)c3cc4c(F)ccc(C)c4[nH]3)c1)C2 [compound 19]
9 nM | – | 60 nM | Cc1ccc(F)c2cc(C(=O)Nc3cc(F)cc(N4CCN(C)C(=O)C4)c3)[nH]c12 [compound 20]
20 nM | 60 nM | – | Cc1ccc(F)c2cc(C(=O)Nc3cc(F)cc(N4CCOC(CCO)C4)c3)[nH]c12 (centres unmarked) [compound 24]
10 nM | 70 nM | – | Cc1ccc(F)c2cc(C(=O)Nc3cc(F)cc(N4CCN(C(=O)N(C)C)CC4)c3)[nH]c12 [compound 25]
10 nM | 70 nM | – | Cc1ccc(F)c2cc(C(=O)Nc3cc(F)cc(C4CCN5C(=O)CCC5C4)c3)[nH]c12 (centres unmarked) [compound 26]
20 nM | 70 nM | – | Cc1ccc(F)c2cc(C(=O)Nc3cccc(N4CCN5C(=O)CCC5C4)c3)[nH]c12 (centres unmarked) [compound 27]
10 nM | – | 70 nM | Cc1ccc(F)c2cc(C(=O)Nc3cc(F)cc(N4CCC5(CCNCC5(F)F)C4)c3)[nH]c12 (centres unmarked) [compound 28]
20 nM | 70 nM | – | Cc1ccc(F)c2cc(C(=O)Nc3cc(F)cc(N4CCC(N5CCn6ccnc6C5)C4)c3)[nH]c12 (centres unmarked) [compound 29]
8 nM | 70 nM | – | CC(=O)N1CCC2(CCN(c3cc(F)cc(NC(=O)c4cc5c(F)ccc(C)c5[nH]4)c3)CC2)C1 [compound 30]
6 nM | – | 80 nM | Cc1ccc(F)c2cc(C(=O)Nc3cc(F)cc([C@H]4CC[C@@H](N5CCOCC5)CC4)c3)[nH]c12 [compound 35]
20 nM | 90 nM | – | Cc1ccc(F)c2cc(C(=O)Nc3cccc(C4CCN5C(=O)CCC5C4)c3)[nH]c12 (centres unmarked) [compound 37]
4 nM | 90 nM | – | Cc1ccc(F)c2cc(C(=O)Nc3cc(F)cc(N4CCC(N5CCN(C(=O)CN(C)C)CC5)C4)c3)[nH]c12 (centres unmarked) [compound 39]
7 nM | 100 nM | – | Cc1ccc(F)c2cc(C(=O)Nc3cc(F)cc(N4CCN(C(=O)C(C)N(C)C)CC4)c3)[nH]c12 (centres unmarked) [compound 43]
10 nM | 100 nM | – | Cc1ccc(F)c2cc(C(=O)Nc3cc(F)cc(N4CCC(N(C)CCF)C4)c3)[nH]c12 (centres unmarked) [compound 47]
5 nM | 100 nM | – | Cc1ccc(F)c2cc(C(=O)Nc3cc(F)cc(N4CCC(N(C)C)C4)c3)[nH]c12 (centres unmarked) [compound 53]
10 nM | 100 nM | – | Cc1ccc(F)c2cc(C(=O)Nc3cccc(N4CCC(N(C)C)C4)c3)[nH]c12 (centres unmarked) [compound 59]
10 nM | 100 nM | – | Cc1ccc(F)c2cc(C(=O)Nc3cccc(N4C[C@H](O)[C@@H](N(C)C)C4)c3)[nH]c12 [compound 61]
9 nM | 100 nM | – | Cc1ccc(F)c2cc(C(=O)Nc3cc(F)cc(N4CCN(C(=O)CN(C)C)CC4)c3)[nH]c12 [compound 62]
6 nM | 200 nM | – | Cc1ccc(F)c2cc(C(=O)Nc3cccc([C@H]4CC[C@H](N(C)C)CC4)c3)[nH]c12 [compound 68]
3 nM | 200 nM | – | Cc1ccc(F)c2cc(C(=O)Nc3cc(F)cc([C@H]4CC[C@@H](N(C)C)CC4)c3)[nH]c12 [compound 69]
9 nM | – | 200 nM | Cc1ccc(F)c2cc(C(=O)Nc3cc(F)cc(N4CCN(C(=O)CN(C)C)C(C)C4)c3)[nH]c12 (centres unmarked) [compound 70]
